Data: patent US5614408A, “Monoclonal antibodies to potato, tomato, and eggplant glycoalkaloids and assays for the same” (priority 1995, dated 1997)
Entries after “also recorded” stand apart in the source; their conditions may differ.

Legend:
Type in all cases: binding, mouse
[1] = system: monoclonal antibody Sol-8; experiment: competitive inhibition ELISA (c-ELISA), monoclonal antibody Sol-8; conditions: Sol-8 (IgG2a); ± one standard deviation
Procedure: (§1) Five, 6 month old BALB/c mice were injected with 50 μl of the solanidine-KLH conjugate mixed 1:1 with Ribi adjuvant (Ribi Immunochem Research Inc., Hamilton, Mont.). The mice received half the dose intraperitoneally and half intramuscularly every other week for a total of three injections. One month later, and 4 days prior to fusion, a selected mouse was given an intraperitoneal injection of 50 μl of solanidine-KLHconjugate in sterile saline. The spleen was removed and the splenocytes fused with SP2/O myeloma cells as described by Stanker et al. (1986, J. Immunol., 136:4174-4180), the contents of which are incorporated by reference herein. The fused cells were plated over 30 96-well microculture plates previously coated with mouse peritoneal exudate cells (macrophage) and grown under conditions described by Elissalde et al. (1993, J. Agric. Food Chem., 41:2167-2171), the contents of which are also incorporated by reference herein.
(§2) db-ELISA. A modification of a direct-binding ELISA described by Stanker et al. (1993, J. Agric. Food Chem., 41:1332-1336), the contents of which are incorporated by reference herein, was used to screen the culture fluids from the growing hybridomas for antibodies to solanidine. Microtiter plates (Nunc Maxisorb, Roskilde, Denmark; or Costar high binding plates, Costar Corp., Wilmington, Mass.) were coated with SOL-BSA by addition of 100 μl/well of a 1 μg/ml solution of SOL-BSA in distilled water. The SOL-BSA was incubated in uncovered plates at 37° C. for 18 hr to evaporate the liquid and allow the SOL-BSA to coat the bottom of the microtiter wells. The "coated" plates were then stored in sealed plastic bags at 4° C. and used within 2 weeks. Nonreacted sites on the plates were blocked by adding 400 μl of a 3% solution of nonfat dry milk (NFDM) in assay buffer (0.1M Tris, 0.15M NaCl, 10 mg/ml nonfat dry milk, 0.001% Tween 20, 0.02% sodium azide) and incubating the plates at room temperature for 1 hr. The blocking solution was then discarded and 100 μl of the hybridoma supernatant(s) or anti-solanidine Mab (from ascites fluid) was added, and the plates incubated for 1 hr at 37° C. After incubation, the plates were washed with a solution of 0.05% TWEEN-20 in water, and peroxidase conjugated goat anti-mouse antiserum (Sigma Inc., St. Louis, Mo.), diluted 1:500 in assay buffer, was then added to each well. Following a second 1 hr incubation at 37° C., the plates were washed as described above. Finally, the substrate, 2,2'-azino-bis(ethylbenzthiazole-6-sulfonic acid) (ABTS), was added. Absorbance was measured at 405 nm and the resulting data analyzed by computer using an Excel (Microsoft, Redmond, Wash.) spreadsheet program.
(§3) c-ELISA. The competitive inhibition ELISA for solanidine and other glycoalkaloids was carried out as previously described for other compounds by Stanker et al. (1993, ibid). Briefly, to each well of an antigen (glycoalkaloid or aglycone) coated, non-fat-milk-blocked, microtiter plate prepared as described in the db-ELISA was added 100 μl of assay buffer. Competitors (free solanidine and other glycoalkaloids and aglycones, and four structurally related steroids cholesterol, digitonin, βsitosterol, and stigmasterol, shown in Table 1) dissolved in 100 μl of assay buffer were added to the microassay plate and serially diluted (a 2-fold series). Next, 100 μl of assay buffer containing a predetermined amount of anti-solanidine monoclonal antibody prepared above was added to each well. The amount of anti-alkaloid antibody added was the concentration (dilution from tissue culture supernatant) resulting in approximately 50% of maximum binding or signal in a direct-binding ELISA where no competitor was present. The plates were sealed with plastic wrap, incubated for 1 hr at 37° C., and then processed as described in the db-ELISA to detect bound antibody. […]

[2] = system: monoclonal antibody Sol-54; experiment: competitive inhibition ELISA (c-ELISA), monoclonal antibody Sol-54; conditions: Sol-54 (IgG2a); ± one standard deviation
Procedure: as §1, §2, §3

[3] = system: monoclonal antibody Sol-55; experiment: competitive inhibition ELISA (c-ELISA), monoclonal antibody Sol-55; conditions: Sol-55 (IgG2a); ± one standard deviation
Procedure: as §1, §2, §3

[4] = system: monoclonal antibody Sol-59; experiment: competitive inhibition ELISA (c-ELISA), monoclonal antibody Sol-59; conditions: Sol-59 (IgG2a); ± one standard deviation
Procedure: as §1, §2, §3

[5] = system: monoclonal antibody Sol-67; experiment: competitive inhibition ELISA (c-ELISA), monoclonal antibody Sol-67; conditions: Sol-67 (IgG1); ± one standard deviation
Procedure: as §1, §2, §3

[6] = system: monoclonal antibody Sol-68; experiment: competitive inhibition ELISA (c-ELISA), monoclonal antibody Sol-68; conditions: Sol-68 (IgG1); ± one standard deviation
Procedure: as §1, §2, §3

[7] = system: monoclonal antibody Sol-71; experiment: competitive inhibition ELISA (c-ELISA), monoclonal antibody Sol-71; conditions: Sol-71 (IgG2a); ± one standard deviation
Procedure: as §1, §2, §3

[8] = system: monoclonal antibody Sol-91; experiment: competitive inhibition ELISA (c-ELISA), monoclonal antibody Sol-91; conditions: Sol-91 (IgG2a); ± one standard deviation
Procedure: as §1, §2, §3

[9] = system: monoclonal antibody Sol-106; experiment: competitive inhibition ELISA (c-ELISA), monoclonal antibody Sol-106; conditions: Sol-106 (IgG2a); ± one standard deviation
Procedure: as §1, §2, §3

[10] = system: monoclonal antibody Sol-129; experiment: competitive inhibition ELISA (c-ELISA), monoclonal antibody Sol-129; conditions: for IC50: Sol-129 (IgG1), ± one standard deviation; for relative affinity of Sol-129 / binding by Sol-129: in words
Procedure: as §1, §2, §3

[11] = system: eleven monoclonal antibodies; experiment: competitive inhibition ELISA (c-ELISA), all eleven monoclonal antibodies; conditions: in words
Procedure: as §1, §2
c-ELISA. […]

[12] = system: monoclonal antibody Sol-48; experiment: competitive inhibition ELISA (c-ELISA), monoclonal antibody Sol-48; conditions: Sol-48 (IgG2a); ± one standard deviation
Procedure: as §1, §2, §3

Row | SMILES | IC50 [1] | IC50 [2] | IC50 [3] | IC50 [4] | IC50 [5] | IC50 [6] | IC50 [7] | IC50 [8] | IC50 [9] | IC50 [10] | cross-reaction of the antibodies [11] | IC50 [12] | relative affinity of Sol-129 [10] | binding by Sol-129 [10]
1 | CC(C)CCC[C@@H](C)[C@H]1CC[C@H]2[C@@H]3CC=C4C[C@@H](O)CC[C@]4(C)[C@H]3CC[C@]12C [cholesterol] | nc (no competition at 10,000 ppb) | nc (no competition at 10,000 ppb) | nc (no competition at 10,000 ppb) | nc (no competition at 10,000 ppb) | nc (no competition at 10,000 ppb) | nc (no competition at 10,000 ppb) | nc (no competition at 10,000 ppb) | nc (no competition at 10,000 ppb) | nc (no competition at 10,000 ppb) | nc (no competition at 10,000 ppb) | None of the eleven antibodies cross-reacted |  |  | 
2 | C[C@H]1CC[C@@H]2[C@@H](C)[C@H]3[C@H](C[C@H]4[C@@H]5CC=C6C[C@@H](O)CC[C@]6(C)[C@H]5CC[C@]34C)N2C1 [solanidine] | 46 ± 6.4 ppb | 131 ± 53 ppb | 60 ± 19 ppb | 16 ± 1.7 ppb | 15.6 ppb | 489 ppb | 1020 ppb | 36 ± 5.7 ppb | 14 ppb | 2.5 ± 0.35 ppb |  | 18 ± 4.4 ppb | high affinity; also recorded: lowest relative affinity | 
3 | C[C@@H]1CC[C@@]2(NC1)O[C@H]1C[C@H]3[C@@H]4CC=C5C[C@@H](O)CC[C@]5(C)[C@H]4CC[C@]3(C)[C@H]1[C@@H]2C [solasodine] |  |  |  |  |  |  |  |  |  |  |  |  |  | binds
4 | C[C@@H]1CC[C@@]2(NC1)O[C@H]1C[C@H]3[C@@H]4CC=C5C[C@@H](O[C@@H]6O[C@H](CO)[C@H](O)[C@H](O[C@@H]7O[C@H](CO)[C@@H](O)[C@H](O)[C@H]7O)[C@H]6O[C@@H]6O[C@@H](C)[C@H](O)[C@@H](O)[C@H]6O)CC[C@]5(C)[C@H]4CC[C@]3(C)[C@H]1[C@@H]2C [solasonine] | nc (no competition at 10,000 ppb) | nc (no competition at 10,000 ppb) | nc (no competition at 10,000 ppb) | nc (no competition at 10,000 ppb) | nc (no competition at 10,000 ppb) | nc (no competition at 10,000 ppb) | nc (no competition at 10,000 ppb) | nc (no competition at 10,000 ppb) | nc (no competition at 10,000 ppb) | 36 ± 3.2 ppb |  | nc (no competition at 10,000 ppb) | high affinity | Sol-129 was the only antibody capable of binding
5 | C[C@H]1CC[C@]2(NC1)O[C@H]1C[C@H]3[C@@H]4CC[C@H]5C[C@@H](O)CC[C@]5(C)[C@H]4CC[C@]3(C)[C@H]1[C@@H]2C [tomatidine] | nc (no competition at 10,000 ppb) | nc (no competition at 10,000 ppb) | nc (no competition at 10,000 ppb) | nc (no competition at 10,000 ppb) | nc (no competition at 10,000 ppb) | nc (no competition at 10,000 ppb) | nc (no competition at 10,000 ppb) | nc (no competition at 10,000 ppb) | nc (no competition at 10,000 ppb) | 10.4 ± 2.0 ppb |  | nc (no competition at 10,000 ppb) |  | specifically bound; also recorded: Sol-129 was the only antibody capable of binding
6 | C[C@H]1CC[C@@H]2[C@@H](C)[C@H]3[C@H](C[C@H]4[C@@H]5CC=C6C[C@@H](O[C@@H]7O[C@H](CO)[C@H](O[C@@H]8O[C@@H](C)[C@H](O)[C@@H](O)[C@H]8O)[C@H](O)[C@@H]7O[C@@H]7O[C@@H](C)[C@@H](O)[C@@H](O)[C@H]7O)CC[C@]6(C)[C@H]5CC[C@]34C)N2C1 [α-chaconine] | 294 ± 34 ppb | 165 ± 58 ppb | 204 ± 19 ppb | 25 ± 2.1 ppb | 20.2 ppb | nc (no competition at 10,000 ppb) | nc (no competition at 10,000 ppb) | 82 ± 5.2 ppb | 54 ± 13 ppb | 2.8 ± 0.2 ppb |  | 323 ± 125 ppb | high affinity | 
7 | C[C@H]1CC[C@@H]2[C@@H](C)[C@H]3[C@H](C[C@H]4[C@@H]5CC=C6C[C@@H](O[C@@H]7O[C@H](CO)[C@H](O)[C@H](O[C@@H]8O[C@H](CO)[C@@H](O)[C@H](O)[C@H]8O)[C@H]7O[C@@H]7O[C@@H](C)[C@H](O)[C@@H](O)[C@H]7O)CC[C@]6(C)[C@H]5CC[C@]34C)N2C1 [α-solanine] | 253 ± 64 ppb | 215 ± 32 ppb | 118 ± 18 ppb | 35 ± 8 ppb | 27.8 ppb | nc (no competition at 10,000 ppb) | nc (no competition at 10,000 ppb) | 104 ± 18 ppb | 49 ± 8 ppb | 2.6 ± 0.25 ppb |  | 436 ± 135 ppb | high affinity | 
8 | C[C@H]1CC[C@]2(NC1)O[C@H]1C[C@H]3[C@@H]4CC[C@H]5C[C@@H](O[C@@H]6O[C@H](CO)[C@H](O[C@@H]7O[C@H](CO)[C@@H](O)[C@H](O[C@@H]8OC[C@@H](O)[C@H](O)[C@H]8O)[C@H]7O[C@@H]7O[C@H](CO)[C@@H](O)[C@H](O)[C@H]7O)[C@H](O)[C@H]6O)CC[C@]5(C)[C@H]4CC[C@]3(C)[C@H]1[C@@H]2C [α-tomatine] | nc (no competition at 10,000 ppb) | nc (no competition at 10,000 ppb) | nc (no competition at 10,000 ppb) | nc (no competition at 10,000 ppb) | nc (no competition at 10,000 ppb) | nc (no competition at 10,000 ppb) | nc (no competition at 10,000 ppb) | nc (no competition at 10,000 ppb) | nc (no competition at 10,000 ppb) | 5.4 ± 3.5 ppb |  | nc (no competition at 10,000 ppb) | approximately the same affinity as the potato glycoalkaloids | specifically bound; also recorded: Sol-129 was the only antibody capable of binding
